# Where two headings read alike, the source gives them in different places.
# Key:
# [1] = both, human; for Fraction unbound ratio All Renal Groups Combined:Healthy / Fraction unbound ratio Mild:Healthy / Fraction unbound ratio Moderate:Healthy / Fraction unbound ratio Severe:Healthy: serum
# Description: The ex vivo protein binding of cilansetron and its 4-hydroxy metabolites has been measured in serum samples collected in a multiple-dose study in healthy and renally impaired male and female subjects, aged 33-74 years. […] Healthy subjects were matched to renally-impaired subjects with respect to age, weight, gender, and smoking status. All subjects received oral cilansetron 2 mg TID on Days 1 to 5, and a single dose on the morning of Day 6.
# healthy subjects [2] = assay: Study K.241.5012: gastric emptying time, healthy young subjects; format: in vivo, human; conditions: mean (SD), not significant vs placebo
# Description: The effect of cilansetron on gastric emptying time and colonic transit time has been studied in 1 clinical study in healthy young subjects and 2 studies in elderly subjects. For measurement of gastric emptying time, breath samples for the determination of the ^12C/^13C ratio were taken on the last day of each treatment period immediately after ingestion of a ^13C labeled meal. The patients' breath was collected in separate 15-minute intervals, for four hours in total. ^13CO2 measurements were performed with an isotope ratio mass spectrometer. The half-life (TK) and lag-time (Tlag), which describe the duration of gastric emptying, were used as the primary parameters to evaluate gastric emptying time. In all 3 studies, colonic transit time was measured by administration of radio-opaque markers for the last six days of each treatment period, followed by a single abdominal X-ray image at 24 hours after ingestion of the last set of markers. The numbers of markers within the colon were used to calculate segmental (right colon, left colon, and rectosigmoid) and total colonic transit time.
# Study K.241.5013 was a randomized, double-blind, placebo-controlled, 3-way crossover study in 12 healthy male subjects (ITT population), aged 20-27 years. Subjects received cilansetron 4 mg, cilansetron 8 mg, or placebo orally TID for 14 days during each of the treatment periods, with a 14-day washout between periods. The primary efficacy parameter was the total mean colonic transit time during each treatment and the secondary parameters were the segmental colonic transit times and the gastric emptying measurements. A one-sided Dunnett t-test procedure was used to compare efficacy parameters between the cilansetron and placebo treatments.
# [3] = system: diarrhea-predominant IBS subjects; assay: Study S241.3.009: IBS-QOL; format: in vivo, human; design: IBS-QOL interference with activity, treatment difference / IBS-QOL food avoidance, treatment difference / IBS-QOL dysphoria, treatment difference / IBS-QOL body image, treatment difference / IBS-QOL health worry, treatment difference / IBS-QOL social reaction, treatment difference / IBS-QOL sexual, treatment difference / IBS-QOL relationships, treatment difference: scale not given here; conditions: for Percentage of Subjects Who Worsened from Baseline: IBS-QOL Overall Score: S241.3.009, 2 mg TID, observed value
# Description: Studies S24 1.3.OO6, S24 1.3.0 1 1, and S24 1.3.009 used the following efficacy measurements: • The subjects answered the following three questions with “yes” or “no” using a phone diary at the end of each week: • a) During the last week, did you experience adequate relief of your IBS symptoms, such as abdominal pain, abdominal discomfort, abnormal bowel habits? • b) During the last week, did you experience adequate relief of your abdominal pain and/or discomfort? • c) During the last week, did you experience adequate relief of your abnormal bowel habits? • The subjects rated the following symptoms using the phone diary at the end of each day: • abdominal pain/discomfort (five-point scale); • stool consistency (seven-point Bristol Stool Scale); • stool frequency (number of bowel movements each day); • urgency (five-point scale); • straining (yes or no); • feeling of incomplete defecation (yes or no); • bloating or feeling of abdominal distension (five-point scale). • In Studies S241 A006 and S241.3.009, subjects completed the IBS-QOL Survey at Baseline (Day 1) and at the end of treatment. In Study S24 1.3.0 1 1, subjects completed the IBS-QOL Survey at Baseline (Day 1), at the end of the three-month treatment period, and at the end of rerandomized treatment.
# Other secondary efficacy parameters for all three studies included: • Responder rate for the weekly diary questions on adequate relief at each month, where a responder for a month (monthly responder) was defined as a subject who answered the weekly question with “yes” at least twice for that month. The responder rate was the percentage of responders within a treatment group. The all-month responder rate for the weekly diary questions on adequate relief was also evaluated, where an all-month responder was defined as a subject who answered the weekly question with “yes” at least twice for each month. The all-month responder rate was the percentage of all-month responders within a treatment group; • Adequate relief rate for the weekly diary questions was calculated for each subject as the number of weekly assessments with adequate relief (“yes”) divided by the total number of weekly assessments; • Percentage of subjects with adequate relief for the weekly diary questions at each week; • Daily diary questions regarding abdominal pain/discomfort (five-point scale), stool consistency (seven-point scale), stool frequency (number of bowel movements each day), straining (yes or no), urgency (five-point scale), feeling of incomplete evacuation (yes or no), and bloating or feeling of abdominal distention (five-point scale); • QOL data assessed by the IBS-QOL questionnaire; and • Question to determine the interruption of activities.
# The IBS-QOL is presented for the ITT population in FIG. 84 (change from Baseline). The IBS-QOL questionnaire was completed only in countries for which there was a validated translation available.
# healthy subjects [4] = conditions: in vivo
# Description: In a randomized, double-blind, placebo-controlled, 2-way crossover study in 9 male and 9 female healthy subjects (ITT population, aged 21-39 years), subjects were randomized to receive 2 treatments (cilansetron 16 mg tablet and placebo) during the 2 treatment periods. During each treatment period, subjects received a single dose of their assigned treatment on the first day (Day 1), after which they received the same treatment TID for 4 days (Days 2-5). There was a 10-day washout period between treatment periods. Subjects were fasted for at least 2 hours before and following each dose, and heavy physical activity was restricted. Serial 12-lead ECGs was recorded up to 24 hours following dosing on Day 1 (single dose) and on the last day (Day 5) of each treatment period. Heart rate and ECG intervals (RR, PR, QRS, and QT) were measured electronically, but were manually verified and corrected if needed by the investigator. QT intervals were corrected (QTc) electronically for heart rate using the Bazett's correction. Mean and maximum QTc intervals were calculated over different time intervals postdose and were compared between treatments using an ANOVA accounting for sequence, gender, subject within sequence and gender, period, and treatment effects.
# CYP3A4 = conditions: hepatocytes
# [5] = male, human, in vivo
# Description: Subjects were treated with a single oral dose of cilansetron 8 mg (tablet) on Day 1, followed by 8 mg TID for 5 days (Days 2-6) and a single 8 mg dose on the morning of Day 7. Young subjects ranged in age from 19-45 years, and elderly from 66-79 years. Serial blood samples were collected up to 24 hours postdose on Days 1 and 7, and cilansetron pharmacokinetic parameters were calculated. Doses on pharmacokinetic sampling days were administered under fasted conditions.
# Young subjects ranged in age from 19-45 years, and elderly from 66-79 years. Serial blood samples were collected up to 24 hours postdose on Days 1 and 7, and cilansetron pharmacokinetic parameters were evaluated. Doses on pharmacokinetic sampling days were administered under fasted conditions.
# clinical = conditions: human, in vivo; for half-life: T½
# Description: Two randomized, double-blind, placebo controlled, balanced incomplete block design, crossover studies evaluated the single- and multiple-dose pharmacokinetics of oral cilansetron over a 8 mg to 32 mg dose range. In both studies, subjects were randomized to receive two of three treatments during 2 treatment periods. In one study (12 male and 13 female subjects, aged 23 to 36 years), subjects received 8 mg cilansetron, 16 mg cilansetron, or placebo, while in another study (12 males and 13 females, aged 23 to 41 years), subjects received 16 mg cilansetron, 32 mg cilansetron, or placebo. During each treatment period, subjects received a single dose of their assigned treatment on the first day, followed by a 3-day washout, after which they received the same treatment TID for 5 days.
# There was a 5-6 day washout period between treatment periods. Doses on the mornings of pharmacokinetic days were administered under fasted conditions. Serial blood sampling and urine collection was performed up to 12 hours following morning dosing on the first day (single dose) and on the last multiple dosing day of each treatment period, and cilansetron pharmacokinetic parameters were evaluated.
# In two randomized, double-blind, placebo controlled, balanced incomplete block design, crossover studies evaluating the single- and multiple-dose pharmacokinetics of oral cilansetron over a 8 mg to 32 mg dose range, subjects were randomized to receive two of three treatments during 2 treatment periods. In Study S.241.1.101; (12 male and 13 female subjects, aged 23 to 36 years), subjects received 8 mg cilansetron, 16 mg cilansetron, or placebo, while in Study S.24 1.1.102; (12 males and 13 females, aged 23 to 41 years), subjects received 16 mg cilansetron, 32 mg cilansetron, or placebo. During each treatment period, subjects received a single dose of their assigned treatment on the first day, followed by a 3-day washout, after which they received the same treatment TID for 5 days. There was a 5-6 day washout period between treatment periods. Doses on the mornings of pharmacokinetic days were administered under fasted conditions. Serial blood sampling and urine collection was performed up to 12 hours following morning dosing on the first day (single dose) and on the last multiple dosing day of each treatment period, and cilansetron pharmacokinetic parameters were evaluated.
compound,measurement,setting,value
"Cc1nccn1C[C@H]1CCc2c(c3cccc4c3n2CCC4)C1=O [Cilansetron, (R)-(−)-4,5,6,8,9,10-hexahydro-10-[(2-methyl-1H-imidazol-1-yl)methyl]-11H-pyrido-[3,2,1-jk]-carbazol-11-one]",Protein bound on average,[1],96.0-96.6%
same,Fraction unbound ratio All Renal Groups Combined:Healthy,[1],"81 (62, 105) %"
same,Fraction unbound ratio Mild:Healthy,[1],"86 (61, 121) %"
same,Fraction unbound ratio Moderate:Healthy,[1],"84 (54, 131) %"
same,Fraction unbound ratio Severe:Healthy,[1],"73 (52, 102) %"
same,Fraction unbound ratio All Renal Groups Combined:Healthy,[1]; 1 h,"94 (76, 116) %"
same,Fraction unbound ratio Mild:Healthy,[1]; 1 h,"91 (70, 119) %"
same,Fraction unbound ratio Moderate:Healthy,[1]; 1 h,"105 (79, 140) %"
same,Fraction unbound ratio Severe:Healthy,[1]; 1 h,"87 (65, 115) %"
same,Fraction unbound ratio All Renal Groups Combined:Healthy,[1]; […],"88 (70, 109) %"
same,Fraction unbound ratio Mild:Healthy,[1]; […],"92 (69, 123) %"
same,Fraction unbound ratio Moderate:Healthy,[1]; […],"90 (66, 123) %"
same,Fraction unbound ratio Severe:Healthy,[1]; […],"81 (59, 110) %"
same,gastric emptying time Tlag,healthy subjects [2]; 4 mg TID oral 14 days,1.70 (0.22) hours
same,gastric emptying time T½,healthy subjects [2]; 4 mg TID oral 14 days,2.46 (0.35) hours
same,gastric emptying time Tlag,healthy subjects [2]; 8 mg TID oral 14 days,1.63 (0.30) hours
same,gastric emptying time T½,healthy subjects [2]; 8 mg TID oral 14 days,2.38 (0.42) hours
same,"Subjects worsened from Baseline, IBS-QOL Overall Score",[3]; Month 6,5%
same,Percentage of Subjects Who Worsened from Baseline: IBS-QOL Overall Score,[3]; Endpoint (last post-Baseline overall score),5%
same,Percentage of Subjects Who Worsened from Baseline: IBS-QOL Overall Score,[3]; Month 6,5%
same,"IBS-QOL body image, treatment difference",[3]; vs placebo,5.04
same,"IBS-QOL dysphoria, treatment difference",[3]; vs placebo,8.78
same,"IBS-QOL food avoidance, treatment difference",[3]; vs placebo,10.09
same,"IBS-QOL health worry, treatment difference",[3]; vs placebo,5.41
same,"IBS-QOL interference with activity, treatment difference",[3]; vs placebo,10.85
same,"IBS-QOL overall score, treatment difference in mean change from Baseline at Endpoint",[3]; vs placebo,7.90
same,"IBS-QOL relationships, treatment difference",[3]; vs placebo,5.66
same,"IBS-QOL sexual, treatment difference",[3]; vs placebo,2.93
same,"IBS-QOL social reaction, treatment difference",[3]; vs placebo,8.70
same,Effect on mean or maximum QTc interval (Bazett's correction),healthy subjects [4],no effect
same,CYP3A4 mRNA induction,CYP3A4,did not induce
same,AUC(0-inf),[5],252 (123) ng · h/mL
same,half-life,"clinical; both, 16 mg",1.35 h
same,Tmax,"clinical; both, 32 mg",1 h
same,AUC,"clinical; both, 32 mg",451 ng·h/mL
same,Cmax,"clinical; both, 32 mg",216 ng/mL
same,half-life,"clinical; both, 32 mg",1.22 h
same,Tmax,"clinical; female, 32 mg",1 h
same,AUC,"clinical; female, 32 mg",405 ng·h/mL
same,Cmax,"clinical; female, 32 mg",210 ng/mL
same,half-life,"clinical; female, 32 mg",1.08 h
same,Tmax,"clinical; female, po, 16 mg",1 h
same,Tmax,"clinical; female, po, 32 mg",1 h
same,AUC,"clinical; female, po, 32 mg",433 ng·h/mL
same,Cmax,"clinical; female, po, 32 mg",270 ng/mL
same,half-life,"clinical; female, po, 32 mg",1.01 h
same,Tmax,"clinical; male, 32 mg",1 h
same,AUC,"clinical; male, 32 mg",354 ng·h/mL
same,Cmax,"clinical; male, 32 mg",140 ng/mL
same,half-life,"clinical; male, 32 mg",1.4 h
same,Tmax,"clinical; male, po, 16 mg",1 h
same,Tmax,"clinical; male, po, 32 mg",1.5 h
same,AUC,"clinical; male, po, 32 mg",469 ng·h/mL
same,Cmax,"clinical; male, po, 32 mg",161 ng/mL
same,half-life,"clinical; male, po, 32 mg",1.44 h

# — patent US20090176817A1, “Method of Treatment of Diarrhea-Predominant Irritable Bowel Syndrome in a Subject” (priority 2005, published 2009)
